Values after ≈ are worked out from the molar mass of the structure shown. Where two headings read alike, the source gives them in different places. Where only a bound is given, the exact number is not on record here.

Common to all, as to assay type: cell-based
Assay [1] relates to Aspergillus fumigatus (ATCC 16424). Kind of assay: In vitro antifungal activity (MIC80), Aspergillus fumigatus ATCC 16424. As to conditions: Aspergillus fumigatus, read-out: Minimal inhibitory concentration (MIC80). In outline:
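Broth dilution in RPMI 1640 with 2% (v/v) final DMSO; A. fumigatus inoculum from Malt Extract Agar subculture diluted 1000-fold to 0.4×10^2˜5×10^4 CFU/ml, alamarblue added, repeated 2 times. MIC80 is lowest concentration reducing growth 80% versus untreated control.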

The test system of assay [2] is Candida albican ATCC 90873. Kind of assay: In vitro antifungal activity (MIC80), Candida albican ATCC 90873. Conditions: Candida, ATCC90873; Table 2, ATCC 90873; read-out: Minimal inhibitory concentration (MIC80). In outline: (§1)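 MIC80 is the lowest concentration that cuts growth by 80% compared with untreated cells, with alamarBlue as the growth read-out. Compounds were serially diluted in RPMI 1640 (0.25–256 […]; DMSO 2% v/v final) and added to 1.0×10^3–5.0×10^3 CFU/ml yeast suspensions, in duplicate runs.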

The test system of assay [3] is Candida albican ATCC 96901. As to the kind of experiment: In vitro antifungal activity (MIC80), Candida albican ATCC 96901. Conditions: Candida, ATCC96901; Table 2, ATCC 96901; read-out: Minimal inhibitory concentration (MIC80). In outline: as §1
Assay [4] relates to Candida albican ATCC MYA-1003. As to the kind of experiment: In vitro antifungal activity (MIC80), Candida albican ATCC MYA-1003. Conditions: Candida; Table 2, MYA 1003; read-out: Minimal inhibitory concentration (MIC80). In outline:
as §1

Assay [5] concerns Candida albican ATCC 62342. Kind of assay: In vitro antifungal activity (MIC80), Candida albican ATCC 62342. As to conditions: Candida, ATCC62342; Table 2, 62342; read-out: Minimal inhibitory concentration (MIC80). In outline:
as §1

The test system of assay [6] is Candida albican ATCC 64124. Kind of assay: In vitro antifungal activity (MIC80), Candida albican ATCC 64124. As to conditions: Candida, ATCC64124; Table 2, 64124; read-out: Minimal inhibitory concentration (MIC80). In outline: as §1
Assay [7] concerns Candida albican ATCC 64550. Kind of assay: In vitro antifungal activity (MIC80), Candida albican ATCC 64550. As to conditions: Candida, ATCC64550; Table 2, 64550; read-out: Minimal inhibitory concentration (MIC80). In outline:
as §1

Assay [8] has as its system Candida albican ATCC MYA-573. As to the kind of experiment: In vitro antifungal activity (MIC80), Candida albican ATCC MYA-573. Conditions: Candida; Table 2, MYA 573; read-out: Minimal inhibitory concentration (MIC80). In outline: as §1
Assay [9] concerns Candida albican ATCC MYA-574. Kind of assay: In vitro antifungal activity (MIC80), Candida albican ATCC MYA-574. Conditions: Candida; Table 2, MYA 574; read-out: Minimal inhibitory concentration (MIC80). In short, it runs like this:
as §1

Assay [10] concerns Candida albican ATCC MYA-575. As to the kind of experiment: In vitro antifungal activity (MIC80), Candida albican ATCC MYA-575. As to conditions: Candida; Table 2, MYA 575; read-out: Minimal inhibitory concentration (MIC80). In short, it runs like this: as §1
Assay [11] concerns Candida albican ATCC MYA-576. Kind of assay: In vitro antifungal activity (MIC80), Candida albican ATCC MYA-576. As to conditions: Candida; Table 2, MYA 576; read-out: Minimal inhibitory concentration (MIC80). In short, it runs like this: as §1
In assay [12] the test system is Aspergillus fumigatus MYA-1163. As to the kind of experiment: In vitro antifungal activity (MIC80), Aspergillus fumigatus MYA-1163. Conditions: Aspergillus fumigatus, MYA1163; Table 3, MYA-1163; read-out: Minimal inhibitory concentration (MIC80). How it is done:
(§2) In vitro antifungal activities of the inventive antifungal compounds were evaluated using test strains including Candida albican (ATCC 90873, 204276, 62342, 64124, 64550, 96901, MYA-573, MYA-574, MYA-575, MYA-576, MYA-1003) and Aspergillus fumigatus (ATCC 16424). Test samples and positive control samples were prepared by dissolving the inventive compounds and comparative compounds, i.e., amphotericin B, fluconazole and itraconazole, in DMSO, respectively, and each successively diluted with medium to obtain test and positive control solutions having test compound concentrations of 0.125 μg/ml to a maximum concentration not generating turbidity. Minimal inhibitory concentration (MIC80) of each compound was determined as the lowest concentration of the test compounds required to reduce growth by 80% relative to a control strain not treated.
(§3) 3) Preparation of test samples: the inventive compounds and comparative compounds were each diluted with DMSO to obtain 1 to 2 ml of a test sample in a concentration of 100-folds of the determining maximum concentration (256 μg/ml).
(§4) The test samples were each successively diluted with RPMI 1640 to obtain test solutions having concentrations of […] in a 12×75 mm sterilized disposable culture tube. The final concentration of DMSO was adjusted to […] (v/v).
(§5) Candida albican strains were each subcultured in Sabourad Dextrose Agar, YM Agar or Potato Dextrose Agar medium at 35° C. for 2˜3 days. In the case of yeasts, a single colony was taken from prominent colonies and suspended in 0.85% sterile physiological saline solution and the turbidity of the suspension was adjusted to 80˜82% at 530 nm, and then diluted 50-fold with RPMI 1640 medium to 1.0×10^3˜5.0×10^3 CFU/ml. The turbidity of fungi was adjusted to 80˜82% and the suspension was diluted 50-fold to […]. Aspergillus fumigatus strains were subcultured in Malt Extract Agar for 7˜10 days, and a single colony was taken from prominent colonies and suspended in 0.85% sterile physiological saline solution and the suspension was adjusted to 0.108 at 530 nm, and then diluted 1000-fold with RPMI 1640 medium to 0.4×10^2˜5×10^4 CFU/ml. The turbidity of fungi was adjusted to 80˜82% and the suspension was diluted 50-fold to 0.4102˜0.5104 CFU/ml.
(§6) The strain solutions thus obtained were each seeded into a sterilized 96-well microplate, 0.1 ml of each test solution were added thereto, and […] of alamarblue was treated to each well (Biosource, #DAL1100). This procedure was repeated 2 times.
(§7) Minimal inhibitory concentration (MIC80) of each compound was determined as the lowest concentration of the test compounds required to reduce growth by 80% relative to a control strain not treated.
(§8) MIC80 of each of the compounds of which antifungal activities can be confirmed by Table 2 was determined using other test strains, i.e., Aspergillus fumigatus ATCC 16424 and MYA-1163, Aspergillus terreus ATCC 28301, Aspergillus flavus ATCC MYA-1004, and Aspergillus niger ATCC 9142.

The subject of assay [13] is Aspergillus flavus ATCC MYA-1004. As to the kind of experiment: In vitro antifungal activity (MIC80), Aspergillus flavus ATCC MYA-1004. Conditions: Aspergillus flavus; Table 3, MYA-1004; read-out: Minimal inhibitory concentration (MIC80). How it is done:
as §2, §3, §4, §5, §6, §7, §8

Assay [14] relates to Aspergillus terreus ATCC 28301. As to the kind of experiment: In vitro antifungal activity (MIC80), Aspergillus terreus ATCC 28301. Conditions: Aspergillus terreus, ATCC28301; Table 3, ATCC 28301; read-out: Minimal inhibitory concentration (MIC80). How it is done: as §2, §3, §4, §5, §6, §7, §8
The test system of assay [15] is Aspergillus niger ATCC 9142. Kind of assay: In vitro antifungal activity (MIC80), Aspergillus niger ATCC 9142. As to conditions: Aspergillus niger, ATCC9142; Table 3, ATCC 9142; read-out: Minimal inhibitory concentration (MIC80). How it is done:
as §2, §3, §4, §5, §6, §7, §8

On to `OC(Cn1cncn1)(Cn1cncn1)c1ccc(F)cc1F` [F, fluconazole, reference compound], for which the MIC80 was above 128 µg/mL in [1] (ATCC16424, Table 2, ATCC 16424); above 128 µg/mL in assay [1] (ATCC16424, Table 3, ATCC 16424); 4 µg/mL (≈ 13.1 µM) in assay [2]; above 128 µg/mL in assay [3]; above 128 µg/mL in [4]; 8 µg/mL (≈ 26.1 µM) in assay [5]. For the same compound, the MIC80 was above 128 µg/mL in [6]; 32 µg/mL (≈ 104 µM) in assay [7]; above 128 µg/mL in assay [8]; above 128 µg/mL in assay [9]; 16 µg/mL (≈ 52.2 µM) in [10]; 64 µg/mL (≈ 209 µM) in assay [11]. The MIC80 in assay [12], in assay [13], in assay [14] and in assay [15] was above 128 µg/mL throughout.

On to `C[C@@H](N1CCN(c2nc3ccc(NCCN4CCOCC4)cc3s2)CC1)[C@](O)(Cn1cncn1)c1ccc(F)cc1F` [Example 12, (2R,3R)-3-(4-(6-(2-morpholinoethylamino)benzothiazol-2-yl)piperazin-1-yl)-2-(2,4-difluorophenyl)-1-(1H-1,2,4-triazol-1-yl)butan-2-ol], for which the MIC80 in assay [1] (ATCC16424, Table 2, ATCC 16424) amounted to 2 µg/mL (≈ 3.34 µM); in assay [1] (ATCC16424, Table 3, ATCC 16424), 2 µg/mL (≈ 3.34 µM); in assay [2] it was 1 µg/mL (≈ 1.67 µM); in assay [3] it was 2 µg/mL (≈ 3.34 µM); in assay [4], 8 µg/mL (≈ 13.4 µM); in assay [5] it was 8 µg/mL (≈ 13.4 µM). Further, the MIC80 in assay [6] came out at 4 µg/mL (≈ 6.68 µM); in [7], 2 µg/mL (≈ 3.34 µM); in assay [8], 2 µg/mL (≈ 3.34 µM); in assay [9] it was 4 µg/mL (≈ 6.68 µM); in [10] it was 1 µg/mL (≈ 1.67 µM); in assay [11], 0.25 µg/mL (≈ 0.418 µM). The MIC80 in assay [12], in assay [13], in assay [14] and in assay [15] was 4 µg/mL (≈ 6.68 µM) each time.

Source of the values: patent publication US20100144712A1 (priority 2007, published 2010).
